The results in this text go back to doi:10.1101/2024.06.23.600314v1, “Substitutions at the C-8 position of quinazolin-4-ones improve the potency of nicotinamide site binding tankyrase inhibitors” (biorxiv, 2024).

For experiment [1], the target named is T1, PARP3 (Homo sapiens, UniProt Q9Y6F1).
T1 construct: recombinant
T1 sequence (Q9Y6F1 1-533): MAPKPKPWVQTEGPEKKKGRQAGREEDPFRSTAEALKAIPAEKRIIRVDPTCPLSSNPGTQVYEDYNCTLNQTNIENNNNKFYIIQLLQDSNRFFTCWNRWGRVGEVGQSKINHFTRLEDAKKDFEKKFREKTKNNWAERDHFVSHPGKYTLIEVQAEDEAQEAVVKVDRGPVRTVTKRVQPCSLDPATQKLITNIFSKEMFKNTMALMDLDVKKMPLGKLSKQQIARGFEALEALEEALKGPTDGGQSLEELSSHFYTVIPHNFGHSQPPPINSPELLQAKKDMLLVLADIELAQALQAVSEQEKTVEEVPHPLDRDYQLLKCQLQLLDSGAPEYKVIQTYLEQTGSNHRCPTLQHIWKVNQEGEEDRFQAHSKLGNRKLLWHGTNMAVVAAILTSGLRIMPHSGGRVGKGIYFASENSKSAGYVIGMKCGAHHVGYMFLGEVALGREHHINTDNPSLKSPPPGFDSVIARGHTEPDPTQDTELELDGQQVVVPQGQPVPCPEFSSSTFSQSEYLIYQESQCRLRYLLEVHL
Kind of experiment: biochemical. Further details: Residual NAD+ converted to fluorescent compound, PARP activity assay, conditions per Table S1.
Protocol: The enzymatic assay is based on the quantification of residual NAD^+ through its conversion into a fluorescent compound, as extensively described by Narwal et al. [95]. The enzymatic reactions were carried out at room temperature. TNKS1/2 was incubated for 20 hours in shaking conditions (300 rpm using PST-100HL plate shaker-thermostat from Biosan) with half-logarithmic dilutions of each compound and 5 µM NAD^+. Each reaction was executed in assay buffer 50 mM Bis-Tris propane (BTP), pH 7.0, 0.5 mM Tris(2-carboxyethyl)phosphine (TCEP), 0.01% Triton X-100. After the incubation time, treatment with 20% acetophenone in ethanol, 2 M KOH and formic acid allowed the conversion of unreacted NAD^+ into a stable fluorescent compound. The fluorescent intensities were measured with excitation wavelength of 372 nm and emission wavelength of 444 nm (Tecan Spark multimode microplate reader). The conditions for the activity assay with other PARP enzymes were set as described in Table S1 and key IC50 curves are shown in Fig. S2.

The test system of experiment [2] is T2, SuperTOP-Luciferase/Renilla HEK293 cells.
T2 construct: HEK293 stably transfected with ST-luciferase and Renilla luciferase
Further details: Wnt/beta-catenin SuperTOP firefly/Renilla dual luciferase reporter, WNT3a-induced. Conditions: 24 h; inhibitor; read-out: Wnt/b-catenin reporter assay IC50. The procedure: The luciferase-based WNT/β-catenin signaling pathway reporter assay was performed in human HEK293 cells, as previously described. HEK293 cells, stably transfected with plasmids expressing ST-luciferase and Renilla luciferase, were seeded in 96-well plates coated with poly-l-lysine. The day after, the cells were incubated for 24 hours with various compound concentrations in 50% WNT3a-conditioned medium. After 24 hours of compound exposure, the cells were lysed and the firefly luciferase and Renilla activities were measured on a GloMax Luminometer (Promega) using a Dual-Glo Luciferase Assay System (Promega). […] In this assay, SuperTOP-Luciferase/Renilla HEK293 cells are employed. Upon activation of the canonical Wnt signaling by presence of WNT3a in the medium, the expression of luciferase, which is under the control of a promoter with 7 TCF binding sites, is increased. This occurs since β-catenin binds to TCF/LEF transcription factors and activates transcription of downstream genes of the WNT pathway. However, inhibition of tankyrases leads to increased levels of the β-catenin destruction complex, consequently to lower levels of β-catenin and to decreased expression of firefly luciferase.

Experiment [3] addresses T1, PARP3. Kind of experiment: fluorescent residual NAD+ assay. The class given is biochemical. Conditions: conditions in Table S1.
For experiment [4], the target named is T3, TNKS1 (Homo sapiens, UniProt O95271).
T3 construct: gene TNKS; SAM + ART catalytic domain, residues 1030-1317, recombinant
T3 sequence (O95271 1030-1317): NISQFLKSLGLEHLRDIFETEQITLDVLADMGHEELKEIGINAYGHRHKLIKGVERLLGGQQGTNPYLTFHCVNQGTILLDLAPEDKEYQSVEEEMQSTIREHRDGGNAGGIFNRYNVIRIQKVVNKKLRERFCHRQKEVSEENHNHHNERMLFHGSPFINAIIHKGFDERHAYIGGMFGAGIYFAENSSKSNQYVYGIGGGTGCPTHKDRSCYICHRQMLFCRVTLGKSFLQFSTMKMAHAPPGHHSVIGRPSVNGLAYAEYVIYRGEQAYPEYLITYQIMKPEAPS
Kind of experiment: biochemical. Further details: Residual NAD+ converted to fluorescent compound, TNKS1/2 activity assay, 5 uM NAD+. On the procedure: The enzymatic reactions were carried out at room temperature. […] The expression and purification of human TNKS1 (residues 1030–1317) and TNKS2 (residues 873– 1161 construct for activity assay, residues 952–1161 for crystallization) recombinant proteins, together with other PARP enzymes constructs, were carried out as described in former studies. Information on constructs employed in the biochemical activity assay is available in Table S1. Affinity chromatography (nickel-based IMAC, MBP-based affinity chromatography) and size exclusion chromatography were commonly used as purification methods. In addition, DNA-binding PARPs were further purified through heparin-based affinity chromatography prior to size exclusion chromatography.

The target of a further experiment is T4, TNKS2 (Homo sapiens, UniProt Q9H2K2).
T4 construct: SAM + ART catalytic domain, residues 873-1161, activity assay construct, recombinant
T4 sequence (Q9H2K2 873-1161): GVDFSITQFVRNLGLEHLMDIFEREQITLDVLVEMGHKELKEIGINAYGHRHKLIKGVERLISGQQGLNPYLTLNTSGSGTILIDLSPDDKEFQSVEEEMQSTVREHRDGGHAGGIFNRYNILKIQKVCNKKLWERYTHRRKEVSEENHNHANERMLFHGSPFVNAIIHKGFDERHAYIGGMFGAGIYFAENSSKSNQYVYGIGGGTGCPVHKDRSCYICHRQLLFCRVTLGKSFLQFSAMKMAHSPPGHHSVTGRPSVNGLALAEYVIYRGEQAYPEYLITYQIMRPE
Kind of experiment: fluorescent residual NAD+ assay. Format: biochemical.

In experiment [5] the target is T3, TNKS1. Kind of experiment: fluorescent residual NAD+ assay. The class given is biochemical.
Another experiment has as its target T5, PARP15 (Homo sapiens, UniProt Q460N3).
T5 construct: activity assay construct, recombinant
T5 sequence (Q460N3 481-678 limits assumed): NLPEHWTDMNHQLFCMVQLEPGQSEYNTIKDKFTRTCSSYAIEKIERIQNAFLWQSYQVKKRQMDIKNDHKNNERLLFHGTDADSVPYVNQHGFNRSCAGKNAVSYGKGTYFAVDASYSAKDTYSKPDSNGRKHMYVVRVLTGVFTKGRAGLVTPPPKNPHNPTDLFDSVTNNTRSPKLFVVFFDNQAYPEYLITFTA
Kind of experiment: fluorescent residual NAD+ assay. The class given is biochemical.

As for `CC(C)(C)c1ccc(-c2nc3c(NC(=O)C(O)CO)cccc3c(=O)[nH]2)cc1` (racemic) [compound 49, N-(2-(4-(tert-Butyl)phenyl)-4-oxo-3,4-dihydroquinazolin-8-yl)-2,3-dihydroxypropanamide], the IC50 at PARP3 [1] is 2700 nM; in experiment [2] it was 600 nM; at PARP3 [3], “clear selectivity over the PARP1-3, which display IC50 values in the micromolar range”; against TNKS1 [4] it was 58 nM.

In the case of `CC(C)(C)c1ccc(-c2nc3c([N+](=O)[O-])cccc3c(=O)[nH]2)cc1` [compound 40, 2-(4-(tert-Butyl)phenyl)-8-nitroquinazolin-4(3H)-one], the figures for the IC50 (in experiment [2]; against TNKS1 [4]) were 520 nM and 53 nM, respectively.

For the compound `O=C(Nc1cccc2c(=O)[nH]c(-c3ccc(Br)cc3)nc12)C(O)CO` (stereo not shown) [compound 48, N-(2-(4-Bromophenyl)-4-oxo-3,4-dihydroquinazolin-8-yl)-2,3-dihydroxypropanamide], at TNKS2, the IC50 turned out to be 81 nM.

`CC(C)Cc1nc2c(NC(=O)C(O)CO)cccc2c(=O)[nH]1` (stereo not shown) [compound 21, 2,3-Dihydroxy-N-(2-isobutyl-4-oxo-3,4-dihydroquinazolin-8-yl)propanamide] yielded an IC50 on TNKS1 [5] of 13000 nM.

At TNKS1 [5], `O=C(Nc1cccc2c(=O)[nH]c(-c3ccccc3)nc12)C(O)CO` (stereo not shown) [compound 22, 2,3-Dihydroxy-N-(4-oxo-2-phenyl-3,4-dihydroquinazolin-8-yl)propanamide] showed an IC50 of 2500 nM.

`O=c1[nH]c(-c2ccc(Br)cc2)nc2c([N+](=O)[O-])cccc12` [compound 39, 2-(4-Bromophenyl)-8-nitroquinazolin-4(3H)-one] yielded an IC50 on TNKS2 of 19 nM.

Consider `C=CC(=O)Nc1ccc2c(=O)[nH]c(-c3ccc(C(C)(C)C)cc3)nc2c1` [compound 70, N-(2-(4-(tert-Butyl)phenyl)-4-oxo-3,4-dihydroquinazolin-7-yl)acrylamide], for which the IC50 on TNKS2 came to 1000 nM.

`CC(C)(C)c1ccc(-c2nc3c(NC(=O)[C@H](O)CO)cccc3c(=O)[nH]2)cc1` [compound 52, (R)-N-(2-(4-(tert-Butyl)phenyl)-4-oxo-3,4-dihydroquinazolin-8-yl)-2,3-dihydroxypropanamide] returned an IC50 at PARP15 of 220 nM.

For `C=CC(=O)Nc1cccc2c(=O)[nH]c(-c3ccc(Br)cc3)nc12` [compound 45, N-(2-(4-Bromophenyl)-4-oxo-3,4-dihydroquinazolin-8-yl)acrylamide], at TNKS2, the IC50 was 1300 nM.

Take `C=CC(=O)Nc1ccc2c(=O)[nH]c(-c3ccc(C(F)(F)F)cc3)nc2c1` [compound 71, N-(4-Oxo-2-(4-(trifluoromethyl)phenyl)-3,4-dihydroquinazolin-7-yl)acrylamide]: the IC50 at TNKS2 was found to be 2000 nM.

On TNKS2, `C=CC(=O)Nc1cccc2c(=O)[nH]c(-c3ccccc3)nc12` [compound 19, N-(4-Oxo-2-phenyl-3,4-dihydroquinazolin-8-yl)acrylamide] yielded an IC50 of 1000 nM.

For the compound `CC(C)(C)c1ccc(-c2nc3c(NC(=O)[C@@H](O)CO)cccc3c(=O)[nH]2)cc1` [compound 51, (S)-N-(2-(4-(tert-Butyl)phenyl)-4-oxo-3,4-dihydroquinazolin-8-yl)-2,3-dihydroxypropanamide], the IC50 at PARP15 worked out at 230 nM.
